Molecules are shown by their SMILES.

Experiment [1] relates to Dd2 SC83288 resistant. Description: Growth inhibition assay. To be noted: Plasmodium falciparum. The format is cell-based. On the procedure:
(§1) To identify the mode of action/mechanism of resistance of SC81458 and […], a chemogenomic approach was used, whereby resistant parasites were obtained by in vitro drug pressure selection and subjected to whole-genome sequencing to identify the genetic basis of resistance. Three independent selections of Dd2 parasites at an initial population of 10^10 infected red blood cells (performed in 150 ml flasks, 2% haematocrit) were subjected to SC81458 or SC83288 at a starting concentration of 50 nM. […] Drug resistance was confirmed by measuring the IC50s, after two consecutive cycles in absence of the drug, using a SYBRGreen growth inhibition assay as previously described. After up to 200 days of drug pressure, the drug-resistant lines were clones by limiting dilution for single-cell isolation and genomic DNA was extracted using the DNeasy Blood&Tissue kit (Qiagen, USA) and subjected to ultra-deep sequencing.

Experiment [2] has as its system Dd2 SC81458 resistant. Description: Growth inhibition assay. The experiment is classed as cell-based. As to conditions: Plasmodium falciparum. On the procedure:
as §1

Experiment [3] has as its system P. falciparum strain Dd2. The experiment can be described thus: Growth inhibition assay, asexual blood stages. The experiment is classed as cell-based, Plasmodium falciparum. As to conditions: Plasmodium falciparum, DD2, Dd2, Supplementary Table 11.
For experiment [4], the system named is Dd2 P. falciparum parasites. Description: In vitro parasite reduction ratio assay (Sanz protocol). The format is cell-based, Plasmodium falciparum.

The term IC50 denotes the concentration that gives 50% inhibition. A higher IC50 goes with lower potency. Consider `O=C1C(O)=C([C@H]2CC[C@H](c3ccc(Cl)cc3)CC2)C(=O)c2ccccc21` [atovaquone, reference compound], for which the 50% inhibitory concentration (IC50) turned out to be 0.8 ± 0.1 nM in experiment [1], 0.3 ± 0.1 nM in experiment [2] and 0.6 ± 0.1 nM in experiment [3]. Also, in experiment [4] (10 times IC50, Dd2), the “In vitro PCT99.9%” value was found to be 89 ± 7 h. The “In vitro lag phase” value in experiment [4] (10 times IC50, Dd2) was greater than 24 h. In experiment [4] (10 times IC50, Dd2, over 48 h), the “In vitro logPRR” value is 2.1±0.4.

The values are drawn from paper PMC5290327, “SC83288 is a clinical development candidate for the treatment of severe malaria” (Nature Communications, 2017).
